Experimental data published in patent publication US20050048462A1, “Markers and screens” (priority 2001, published 2005).

Assays:
Format in all cases: cell-based
[1] = system: GFP-tagged gelsolin in hippocampal neurons; experiment: Gelsolin accumulation in dendritic spines, receptor subtype specificity
Procedure: Imaging was performed at 37° C. in Tyrode's solution pH 7.3, with GFP-optimized filters (Chroma Technologies, Brattleboro, Vt.) and a MicroMax cooled CCD camera (Princeton Instruments, Trenton, N.J.) controlled by Metamorph software (Universal Imaging corporation, West Chester, Pa.). Cells were stimulated by addition of glutamate or NMDA (5 to 10 μM) for up to 30 minutes. In experiments where specific receptor subtypes were blocked, cells were preincubated for 15 minutes with corresponding antagonists.
In these experiments only 2.5 μM glutamate was used.

[2] = system: hippocampal neurons expressing unmodified GFP; experiment: Distribution of unmodified GFP in dendrites after glutamate (control construct); conditions: 10 μM glutamate
Procedure: (§1) To test this hypothesis we exposed hippocampal neurons expressing GFP-tagged profilin II or profilin I or unmodified GFP to 10 μM glutamate (FIG. 2). […] Glutamate treatment also produced a weaker shift of GFP tagged profilin I into spines (FIG. 2D) which, however, never approached the high levels seen for profilin II.

[3] = system: cultured hippocampal neurons; conditions: glutamate 100 microM for 30 min
Source text: This is relevant to stroke and epilepsy where hyperstimulation of receptors by released glutamate causes neuronal damage. Thus it appears that profilin II tagging occurs even after events that ultimately lead to apoptosis have been set in motion. In toxicity models, profilin II targeting could thus act as a marker for potentially damaged cells at times before cell death occurs.

[4] = system: hippocampal neurons expressing GFP-tagged profilin I; experiment: Profilin I-GFP redistribution to spines after glutamate; conditions: 10 μM glutamate; compared with profilin II
Procedure: as §1

[5] = treated with agonists for specific receptor subtypes
[6] = treated with glutamate (2.5 μM) while blocking specific receptor subtypes

SMILES | Accumulation (+) of gelsolin, number of cells [1, 5] | No change (−) of gelsolin, number of cells [1, 5] | Accumulation (+) of gelsolin, number of cells [1, 6] | No change (−) of gelsolin, number of cells [1, 6] | also measured
CN[C@H](CC(=O)O)C(=O)O [NMDA, N-methyl-D-aspartate] | 11 | 16 | – | – | –
N[C@H](C(=O)O)c1cc(O)cc(O)c1 [DHPG, (S)-3,5-dihydroxyphenylglycine] | 4 | 7 | – | – | –
N[C@H](CCCP(=O)(O)O)C(=O)O [APV, D(−)-2-amino-5-phosphonopentanoic acid] | – | – | 1 | 14 | –
Cc1onc(O)c1CC(N)C(=O)O (centres unmarked) [AMPA, amino-3-hydroxy-5-methyl-4-isoxazolepropionic acid] | 0 | 10 | – | – | –
N[C@@H](CCC(=O)O)C(=O)O [glutamate] | – | – | – | – | Distribution of unmodified GFP (in words) [2]: did not change the distribution; Number of cells in category − ([2]; GFP construct): 7; Profilin II-GFP targeting despite degenerative changes (in words) [3]: still targeted to punctate sites within dendrites; Time to excitotoxic changes (loss of normal morphology, swelling of dendrites) [3]: ≤ 2 min; Shift of GFP tagged profilin I into spines (in words) [4]: weaker shift
NS(=O)(=O)c1cccc2c1c([N+](=O)[O-])cc1[nH]c(=O)c(=O)[nH]c12 [NBQX, 1,2,3,4-Tetrahydro-6-nitro-2,3-dioxo-benzo[f]quinoxaline-7-sulfonamide] | – | – | 7 | 6 | –
CC(N)(C(=O)O)c1ccc(C(=O)O)cc1 (racemic) [MCPG, (R, S)-[…]-methyl-4-carboxyphenylglycine] | – | – | 3 | 8 | –
